{"source": "paper PMC3433420", "about": "(PLoS ONE, 2012)", "origin": "cited, not measured here", "target": "SH2 and PTB domains", "details": "cited from earlier work", "source_text": "Supplement pone.0044471.s022.xlsx, sheet \"Most recent PM interactions\" | column: Kd || Supplement pone.0044471.s022.xlsx, sheet \"All original PM interactions\" | column: Kd", "key": {"[1]": {"details": "Protein ABL2, most recent PM interactions, ref Jones et al. 2006 / Kaushansky et al. Mol Biosys 2008 / Kaushansky et al. Chem and Biol 2008"}, "[2]": {"details": "protein BLK, ref Kaushansky et al. Chem and Biol 2008"}, "[3]": {"details": "protein YES1, ref Kaushansky et al. Chem and Biol 2008"}, "[4]": {"details": "protein PLCG2-NC, ref Kaushansky et al. Chem and Biol 2008"}}, "note": "Read-outs that look alike come from different tables or passages of the source."}
{"substance": "HSTAVGNPEpYLNTVQPTd [ErbB1 1138]", "values": [{"measurement": "Kd", "setting": "[1]", "result": 120, "unit": "nM"}, {"measurement": "Kd", "setting": "Protein GRB2, most recent PM interactions, ref Jones et al. 2006 / Kaushansky et al. Mol Biosys 2008 / Kaushansky et al. Chem and Biol 2008", "result": 420, "unit": "nM"}, {"measurement": "Kd", "setting": "Protein ITK, most recent PM interactions, ref Jones et al. 2006 / Kaushansky et al. Mol Biosys 2008 / Kaushansky et al. Chem and Biol 2008", "result": 1760, "unit": "nM"}, {"measurement": "Kd", "setting": "Protein NCK2, most recent PM interactions, ref Jones et al. 2006 / Kaushansky et al. Mol Biosys 2008 / Kaushansky et al. Chem and Biol 2008", "result": 330, "unit": "nM"}, {"measurement": "Kd", "setting": "Protein PIK3R1-NC, most recent PM interactions, ref Jones et al. 2006 / Kaushansky et al. Mol Biosys 2008 / Kaushansky et al. Chem and Biol 2008", "result": 1570, "unit": "nM"}, {"measurement": "Kd", "setting": "Protein PIK3R2-N, most recent PM interactions, ref Jones et al. 2006 / Kaushansky et al. Mol Biosys 2008 / Kaushansky et al. Chem and Biol 2008", "result": 760, "unit": "nM"}, {"measurement": "Kd", "setting": "Protein PIK3R2-NC, most recent PM interactions, ref Jones et al. 2006 / Kaushansky et al. Mol Biosys 2008 / Kaushansky et al. Chem and Biol 2008", "result": 860, "unit": "nM"}, {"measurement": "Kd", "setting": "Protein PIK3R3-N, most recent PM interactions, ref Jones et al. 2006 / Kaushansky et al. Mol Biosys 2008 / Kaushansky et al. Chem and Biol 2008", "result": 840, "unit": "nM"}, {"measurement": "Kd", "setting": "Protein PIK3R3-NC, most recent PM interactions, ref Jones et al. 2006 / Kaushansky et al. Mol Biosys 2008 / Kaushansky et al. Chem and Biol 2008", "result": 1690, "unit": "nM"}, {"measurement": "Kd", "setting": "Protein RASA1-N, most recent PM interactions, ref Jones et al. 2006 / Kaushansky et al. Mol Biosys 2008 / Kaushansky et al. Chem and Biol 2008", "result": 390, "unit": "nM"}, {"measurement": "Kd", "setting": "Protein SHC1-PTB, most recent PM interactions, ref Jones et al. 2006 / Kaushansky et al. Mol Biosys 2008 / Kaushansky et al. Chem and Biol 2008", "result": 170, "unit": "nM"}, {"measurement": "Kd", "setting": "Protein VAV2, most recent PM interactions, ref Jones et al. 2006 / Kaushansky et al. Mol Biosys 2008 / Kaushansky et al. Chem and Biol 2008", "result": 370, "unit": "nM"}, {"measurement": "Kd", "setting": "Protein ZAP70-NC, most recent PM interactions, ref Jones et al. 2006 / Kaushansky et al. Mol Biosys 2008 / Kaushansky et al. Chem and Biol 2008", "result": 1140, "unit": "nM"}]}
{"substance": "LHRIpYTHQSDVWd [ErbB1 pY891, N-terminally rhodamine-labeled 13-mer phosphopeptide]", "values": [{"measurement": "Kd", "setting": "protein HSH2D, ref Kaushansky et al. Mol Biosys 2008", "result": 1130, "unit": "nM"}, {"measurement": "Kd", "setting": "protein TNS4, ref Kaushansky et al. Mol Biosys 2008", "result": 300, "unit": "nM"}]}
{"substance": "EEYEpYMNRRRRHd [ErbB3 pY1199, N-terminally rhodamine-labeled 13-mer phosphopeptide]", "values": [{"measurement": "Kd", "setting": "protein ABL2, ref Kaushansky et al. Chem and Biol 2008", "result": 300, "unit": "nM"}, {"measurement": "Kd", "setting": "[2]", "result": 1810, "unit": "nM"}, {"measurement": "Kd", "setting": "protein FGR, ref Kaushansky et al. Chem and Biol 2008", "result": 1130, "unit": "nM"}, {"measurement": "Kd", "setting": "protein PIK3R1-NC, ref Kaushansky et al. Chem and Biol 2008", "result": 1510, "unit": "nM"}, {"measurement": "Kd", "setting": "protein PIK3R2-N, ref Kaushansky et al. Chem and Biol 2008", "result": 1350, "unit": "nM"}, {"measurement": "Kd", "setting": "protein PIK3R3-N, ref Kaushansky et al. Chem and Biol 2008", "result": 1380, "unit": "nM"}, {"measurement": "Kd", "setting": "protein PIK3R3-NC, ref Kaushansky et al. Chem and Biol 2008", "result": 1460, "unit": "nM"}, {"measurement": "Kd", "setting": "protein RASA1-N, ref Kaushansky et al. Chem and Biol 2008", "result": 310, "unit": "nM"}, {"measurement": "Kd", "setting": "[3]", "result": 590, "unit": "nM"}, {"measurement": "Kd", "setting": "protein ZAP70-NC, ref Kaushansky et al. Chem and Biol 2008", "result": 1470, "unit": "nM"}]}
{"substance": "DNPEpYHNASNGPd [ErbB4 pY1188, N-terminally rhodamine-labeled 13-mer phosphopeptide]", "values": [{"measurement": "Kd", "setting": "protein ABL1, all original PM interactions, ref Jones et al. 2006 / Kaushansky et al. Chem and Biol 2008", "result": 1820, "unit": "nM"}, {"measurement": "Kd", "setting": "protein ABL2, all original PM interactions, ref Jones et al. 2006 / Kaushansky et al. Chem and Biol 2008", "result": 760, "unit": "nM"}, {"measurement": "Kd", "setting": "protein ABL2, ref Jones et al. 2006 / Kaushansky et al. Chem and Biol 2008", "result": 35, "unit": "nM"}, {"measurement": "Kd", "setting": "protein NCK2, all original PM interactions, ref Jones et al. 2006 / Kaushansky et al. Chem and Biol 2008", "result": 2000, "unit": "nM"}, {"measurement": "Kd", "setting": "protein PIK3R3-NC, all original PM interactions, ref Jones et al. 2006 / Kaushansky et al. Chem and Biol 2008", "result": 2000, "unit": "nM"}, {"measurement": "Kd", "setting": "protein SHC1-PTB, all original PM interactions, ref Jones et al. 2006 / Kaushansky et al. Chem and Biol 2008", "result": 280, "unit": "nM"}, {"measurement": "Kd", "setting": "protein SHC1-PTB, ref Jones et al. 2006 / Kaushansky et al. Chem and Biol 2008", "result": 720, "unit": "nM"}]}
{"substance": "DEKEpYNADGGKMd [ErbB4 pY875, N-terminally rhodamine-labeled 13-mer phosphopeptide]", "values": [{"measurement": "Kd", "setting": "[4]", "result": 1140, "unit": "nM"}]}
{"substance": "IKEDSFLQRpYSSDPTGAd [ErbB1 1069]", "values": [{"measurement": "Kd", "setting": "Protein SHB, most recent PM interactions, ref Jones et al. 2006 / Kaushansky et al. Mol Biosys 2008 / Kaushansky et al. Chem and Biol 2008", "result": 860, "unit": "nM"}, {"measurement": "Kd", "setting": "Protein YES1, most recent PM interactions, ref Jones et al. 2006 / Kaushansky et al. Mol Biosys 2008 / Kaushansky et al. Chem and Biol 2008", "result": 300, "unit": "nM"}]}
{"substance": "DETEpYHADGGKVd [ErbB2 pY877, N-terminally rhodamine-labeled 13-mer phosphopeptide]", "values": [{"measurement": "Kd", "setting": "[2]", "result": 720, "unit": "nM"}, {"measurement": "Kd", "setting": "protein PLCG2-N, ref Kaushansky et al. Chem and Biol 2008", "result": 650, "unit": "nM"}, {"measurement": "Kd", "setting": "[4]", "result": 1100, "unit": "nM"}, {"measurement": "Kd", "setting": "protein RASA1-NC, ref Kaushansky et al. Chem and Biol 2008", "result": 1400, "unit": "nM"}, {"measurement": "Kd", "setting": "[3]", "result": 1890, "unit": "nM"}]}
{"substance": "ALESILHRIpYTHQSDVWd [ErbB1 891]", "values": [{"measurement": "Kd", "setting": "Protein HSH2D, most recent PM interactions, ref Kaushansky et al. Mol Biosys 2008", "result": 1130, "unit": "nM"}, {"measurement": "Kd", "setting": "Protein TNS4, most recent PM interactions, ref Kaushansky et al. Mol Biosys 2008", "result": 300, "unit": "nM"}]}
{"substance": "KLLGAEEKEpYHAEGGKVd [ErbB1 869]", "values": [{"measurement": "Kd", "setting": "[1]", "result": 1080, "unit": "nM"}, {"measurement": "Kd", "setting": "Protein BLK, most recent PM interactions, ref Jones et al. 2006 / Kaushansky et al. Mol Biosys 2008 / Kaushansky et al. Chem and Biol 2008", "result": 1710, "unit": "nM"}]}
{"substance": "ENPEpYLSEFSLKd [ErbB4 pY1284, N-terminally rhodamine-labeled 13-mer phosphopeptide]", "values": [{"measurement": "Kd", "setting": "protein ABL2, ref Jones et al. 2006", "result": 220, "unit": "nM"}, {"measurement": "Kd", "setting": "protein PIK3R2-NC, all original PM interactions, ref Jones et al. 2006", "result": 2000, "unit": "nM"}, {"measurement": "Kd", "setting": "protein PIK3R2-NC, ref Jones et al. 2006", "result": 2000, "unit": "nM"}, {"measurement": "Kd", "setting": "protein PIK3R3-NC, all original PM interactions, ref Jones et al. 2006", "result": 2000, "unit": "nM"}, {"measurement": "Kd", "setting": "protein PIK3R3-NC, ref Jones et al. 2006", "result": 2000, "unit": "nM"}, {"measurement": "Kd", "setting": "protein PLCG1-NC, all original PM interactions, ref Jones et al. 2006", "result": 2000, "unit": "nM"}, {"measurement": "Kd", "setting": "protein PLCG1-NC, ref Jones et al. 2006", "result": 2000, "unit": "nM"}, {"measurement": "Kd", "setting": "protein RASA1-N, ref Jones et al. 2006", "result": 710, "unit": "nM"}, {"measurement": "Kd", "setting": "protein SH2B3, all original PM interactions, ref Jones et al. 2006", "result": 2000, "unit": "nM"}, {"measurement": "Kd", "setting": "protein SH2B3, ref Jones et al. 2006", "result": 2000, "unit": "nM"}, {"measurement": "Kd", "setting": "protein SHC1-PTB, ref Jones et al. 2006", "result": 24, "unit": "nM"}, {"measurement": "Kd", "setting": "protein SLA2, all original PM interactions, ref Jones et al. 2006", "result": 2000, "unit": "nM"}, {"measurement": "Kd", "setting": "protein SLA2, ref Jones et al. 2006", "result": 2000, "unit": "nM"}, {"measurement": "Kd", "setting": "protein SYK-NC, ref Jones et al. 2006", "result": 1670, "unit": "nM"}, {"measurement": "Kd", "setting": "protein VAV2, all original PM interactions, ref Jones et al. 2006", "result": 2000, "unit": "nM"}, {"measurement": "Kd", "setting": "protein VAV2, ref Jones et al. 2006", "result": 2000, "unit": "nM"}]}
